Earlier results, collected in US20240173371A1, “RHODIOLA CRENULATA COMPOSITIONS AND METHODS OF MAKING THE SAME” (NutriScience Innovations LLC, priority 2022, published 2024).

Experiments:
[1] = tested on: CD3+T cells and CD4+T helper cells; settings: Wistar male rats, supplementation
[2] = rats, oral, 20 and 40 mg/kg over two weeks
[3] = rats, oral, 20 and 40 mg/kg over two weeks; remark: listed apart in the source

OC[C@H]1O[C@@H](OCCc2ccc(O)cc2)[C@H](O)[C@@H](O)[C@@H]1O [salidroside]
CD4+T helper cells [1]: increased | total CD3+T cells [1]: increased | olfactory-bulbectomy-induced hyperactivity [2]: alleviated | outcome of a forced swim test [3]: improved
